In data set [1] the target is DNA gyrase subunit B (Staphylococcus aureus, UniProt P0A0K8). As to the kind of experiment: Inhibition of Staphylococcus aureus Gyrase B ATPase activity by fluorescence analysis.
In data set [2] the test system is Staphylococcus aureus. As to the kind of experiment: Antibacterial activity against methicillin-sensitive Staphylococcus aureus 42 for 18 to 20 hrs by broth microdilution method. The data set is classed as functional. (Broth dilution looks for growth in wells or tubes with falling amounts of substance.)
The subject of data set [3] is Staphylococcus aureus. As to the kind of experiment: Antibacterial activity against methicillin-resistant Staphylococcus aureus 1118 for 18 to 20 hrs by broth microdilution method. The data set is classed as functional.
Data set [4] concerns Staphylococcus aureus. As to the kind of experiment: Antibacterial activity against methicillin and ciprofloxacin-resistant Staphylococcus aureus 1721 for 18 to 20 hrs by broth microdilution method. The data set is classed as functional.
The subject of data set [5] is Streptococcus pneumoniae. As to the kind of experiment: Antibacterial activity against Streptococcus pneumoniae for 18 to 24 hrs by broth microdilution method. The data set is classed as functional.
In data set [6] the test system is Enterococcus faecium. As to the kind of experiment: Antibacterial activity against Enterococcus faecium for 18 to 20 hrs by broth microdilution method. The data set is classed as functional.
Data set [7] deals with Enterococcus faecalis. As to the kind of experiment: Antibacterial activity against Enterococcus faecalis for 18 to 20 hrs by broth microdilution method. The data set is classed as functional.
For data set [8], the system named is Streptococcus pneumoniae. As to the kind of experiment: Antibacterial activity against Streptococcus pneumoniae 402 infected in sc dosed mouse assessed as reduction in 2 log CFU in lung compound administered as BID for 1 day measured 24 hrs after last dose. The data set is classed as functional.
Data set [9] has as its system Streptococcus pneumoniae. In words: Antibacterial activity against Streptococcus pneumoniae 402 infected in sc dosed mouse assessed as reduction in 3 log CFU in lung compound administered as BID for 1 day measured 24 hrs after last dose. The data set is classed as functional.
For data set [10], the system named is Mus musculus. As to the kind of experiment: Dose-normalized AUC in mouse at 2 mg/kg, iv by LC-MS/MS analysis. The data set is classed as ADME, organism-based. The settings on record: in vivo.
A short description of data set [11]: Volume of distribution at steady state in mouse at 2 mg/kg, iv by LC-MS/MS analysis. The data set is classed as ADME, organism-based. The settings on record: in vivo, read-out: Vdss.
The nature of data set [12]: Half-life in mouse at 2 mg/kg, iv by LC-MS/MS analysis. The data set is classed as ADME, organism-based. To be noted: in vivo.
The nature of data set [13]: Clearance in mouse at 2 mg/kg, iv by LC-MS/MS analysis. The data set is classed as ADME, organism-based. To be noted: in vivo.
In data set [14] the test system is Staphylococcus aureus. As to the kind of experiment: Antibacterial activity against Staphylococcus aureus 1118 infected in sc and iv dosed mouse assessed as septicemia compound administered 1 hr post-infection twice for 1 day measured for 7 days. The data set is classed as functional. The settings on record: read-out: PD50.
The nature of data set [15]: Inhibition of Staphylococcus aureus topoisomerase 4 by fluorescence analysis.
Data set [16] can be described thus: Log D of compound at pH 7.4. To be noted: buffer.

Molecules are shown by their SMILES. Values after ≈ are worked out from the molar mass of the structure shown.

As a reminder, the IC50 is the concentration that gives 50% inhibition. A low value points to greater potency. Broadly, the MIC is the lowest concentration found to suppress growth. Higher therefore signals a need for much substance. For orientation: half-life means how long it takes for the measured level to halve. In general, clearance refers to a measure of how efficiently the substance is removed, as volume per time. For orientation: logD means the decadic logarithm of the distribution of all forms, ionised or not, between an organic phase and buffer at a given pH. Low readings indicate lower lipophilicity, high ones higher lipophilicity.

DNA gyrase subunit B, sequence (P0A0K8 whole entry): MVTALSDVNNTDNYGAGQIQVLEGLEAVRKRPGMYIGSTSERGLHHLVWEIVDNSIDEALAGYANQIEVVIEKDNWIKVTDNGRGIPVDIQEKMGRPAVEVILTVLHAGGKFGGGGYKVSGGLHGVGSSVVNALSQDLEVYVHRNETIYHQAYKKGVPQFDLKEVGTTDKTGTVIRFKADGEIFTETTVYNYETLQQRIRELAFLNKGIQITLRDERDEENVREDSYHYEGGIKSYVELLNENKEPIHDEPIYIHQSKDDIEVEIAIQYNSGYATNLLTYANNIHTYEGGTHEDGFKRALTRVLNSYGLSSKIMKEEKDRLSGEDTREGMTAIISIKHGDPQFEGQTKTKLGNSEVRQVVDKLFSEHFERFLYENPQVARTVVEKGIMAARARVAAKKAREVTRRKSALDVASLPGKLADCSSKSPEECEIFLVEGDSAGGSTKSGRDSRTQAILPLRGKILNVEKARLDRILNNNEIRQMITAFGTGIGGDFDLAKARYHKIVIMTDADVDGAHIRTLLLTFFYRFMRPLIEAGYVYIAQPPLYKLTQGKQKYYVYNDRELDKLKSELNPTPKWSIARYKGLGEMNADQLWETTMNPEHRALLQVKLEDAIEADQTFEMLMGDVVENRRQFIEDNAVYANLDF

As to `CCCc1c(OC)ccc2c(-c3cnc(-c4ccc(C(=O)O)c(F)c4)s3)n[nH]c12`, in [1], the IC50 is 15 nM. In addition, the MIC in [2] is 0.06 µg/mL (≈ 0.146 µM); in data set [3] it was 0.125 µg/mL (≈ 0.304 µM); in data set [4], 0.125 µg/mL (≈ 0.304 µM); in data set [5] it was 0.125 µg/mL (≈ 0.304 µM); in data set [6] it was 0.03 µg/mL (≈ 0.0729 µM); in [7], 0.03 µg/mL (≈ 0.0729 µM). For the same compound, the ED turned out to be 60.6 mg/kg in data set [8] and 103.7 mg/kg in [9]. This compound had an AUC/dose in [10] of 0.893 µg·h/mL/mg/kg. For the same compound, the Vd in data set [11] is 0.32 L/kg. The compound further gave a half-life in [12] of 0.31 h. The same compound displayed a clearance in data set [13] of 19 mL/min/kg.

As for `CCCc1cccc2c(-c3cnc(-c4ccc(C(=O)O)nc4)s3)n[nH]c12`, the ED50 in [14] was 1 mg/kg. Besides, the IC50 in data set [1] turned out to be 10 nM; in data set [15] it was 56 nM. Moreover, the minimum inhibitory concentration (MIC) is 0.06 µg/mL (≈ 0.165 µM) in data set [2]; 0.06 µg/mL (≈ 0.165 µM) in [3]; 0.06 µg/mL (≈ 0.165 µM) in [4]; 0.06 µg/mL (≈ 0.165 µM) in data set [5]; 0.06 µg/mL (≈ 0.165 µM) in data set [6]; 0.03 µg/mL (≈ 0.0823 µM) in data set [7]. The ED in data set [8] and in data set [9] was greater than 25 mg/kg throughout. This compound also displayed an AUC/dose in data set [10] of 0.159 µg·h/mL/mg/kg. Also, the Vd in data set [11] was 3.47 L/kg. The same compound gave a half-life in data set [12] of 2.1 h. The same compound showed a clearance in [13] of 105 mL/min/kg. Also, the pH-dependent lipophilicity (logD) in data set [16] was determined as 1.7.

Consider `CCCn1c(=O)ccc2c(-c3cnc(-c4ccc(C(=O)O)nc4)s3)n[nH]c21`, for which the IC50 in data set [1] was less than 8 nM; in data set [15], 56 nM. The figures for the MIC in data set [2] and in data set [5] were greater than 32 µg/mL and 0.06 µg/mL (≈ 0.157 µM), respectively. The compound further displayed a pH-dependent lipophilicity (logD) in [16] of 0.9.

As to `CCCc1cccc2c(-c3cnc(-c4ccc(C(=O)O)c(F)c4)s3)n[nH]c12`, the IC50 in data set [1] was less than 8 nM; in data set [15] it was 1300 nM. Besides, the MIC in data set [2] came to 0.125 µg/mL (≈ 0.328 µM); in [3], 0.125 µg/mL (≈ 0.328 µM); in data set [4] it was 0.125 µg/mL (≈ 0.328 µM); in data set [5], 0.25 µg/mL (≈ 0.655 µM); in data set [6], 0.06 µg/mL (≈ 0.157 µM); in [7] it was 0.06 µg/mL (≈ 0.157 µM). Besides, the ED worked out at 63 mg/kg in [8] and 97.6 mg/kg in data set [9]. Further, the AUC/dose in [10] was 0.397 µg·h/mL/mg/kg. Moreover, in data set [11], the Vd amounted to 1.7 L/kg. This compound also gave a half-life in data set [12] of 2 h. In data set [13], the clearance came to 42 mL/min/kg.

Regarding `CO[C@@H]1[C@@H](OC(N)=O)[C@@H](O)[C@H](Oc2ccc3c(O)c(NC(=O)c4ccc(O)c(CC=C(C)C)c4)c(=O)oc3c2C)OC1(C)C` [NOVOBIOCIN], in data set [14], the ED50 worked out at 10 mg/kg. In addition, the values for the minimum inhibitory concentration (MIC) in data set [3] and in data set [5] were 0.125 µg/mL (≈ 0.204 µM) and 2 µg/mL (≈ 3.26 µM), respectively. Moreover, the ED in [8] and in data set [9] was greater than 100 mg/kg in each case.
